Reference: US9233978B2, “6-fused heteroaryldihydropyrimidines for the treatment and prophylaxis of hepatitis B virus infection” (Hoffmann-La Roche Inc., priority 2014, dated 2016)
≈ marks a conversion by molar mass, not a printed value.

Experiments:
Lysa solubility = assay type: physicochemical; conditions: 0.05 M phosphate buffer (pH 6.5); for solubility thermodynamic: phosphate buffer, pH 6.5, aqueous buffer, thermodynamic from solid
Experimental: Samples were prepared in duplicate from 10 mM DMSO stock solutions. After evaporation of DMSO with a centrifugal vacuum evaporator, the residue was solved in 0.05 M phosphate buffer (pH 6.5), stirred for one hour and shook for two hours. After one night, the solution was filtered using a microtiter filter plate. Then the filtrate and its 1/10 dilution were analyzed by direct UV measurement or by HPLC-UV. […] The results were in μg/mL. In case the percentage of sample measured in solution after evaporation divided by the calculated maximum of sample amount was over 80%, the solubility was reported as higher than this value.

HBV = experiment: Anti-HBV activity in vitro, HepG2.2.15 cells, extracellular HBV DNA by qPCR; assay type: cell-based; conditions: Hepatitis B virus, HepG2.2.15, 120 h, HepG2.2.15 cells; HBV replication inhibited by 50%, extracellular HBV DNA by qPCR; five days after compound treatment; read-out: EC50
From the text: HepG2.2.15 and HepDE19 are stably-transfected cell lines containing the HBV genome. Both cell lines are derived from the hepatoblastoma cell line Hep G2 (American Type Culture Collection, ATCC® HB-8065™) by the published procedures described in references: MA Selles et al. Proc. Natl. Acad. Sci. USA 1987, 84, 1005-1009 and H Guo et al. Journal of Virology 2007, 81, 12472-12484, respectively. Both cell lines were maintained in Dulbecco's modified Eagle's medium (DMEM)-F12 medium supplemented with 10% fetal bovine serum, 100 U/mL penicillin, 100 μg/mL streptomycin, and 0.5 mg/mL of G418.
While HepG2.2.15 cells constitutively support HBV replication and production of virus particles, HepDE19 cells are inducible by tetracycline. Addition of 1 μg/mL tetracycline in culture medium suppresses HBV replication in HepDE19 cells, whereas switching to tetracycline-free medium resumes this process.
HepG2.2.15 cells were seeded into 96-well plates (3×10^4 cells in 100 μL media per well) and incubated overnight at 37° C. The test compounds were serially half-log diluted in DMSO, then diluted 100 times in culture media. 100 μL of diluted compounds were added into the plates to reach 0.5% final concentration of DMSO in every well. Five days after compound treatment, culture supernatant was collected for further analysis.
For quantitative PCR detection of extracellular HBV DNA, 100 μL of culture supernatant was collected and processed in MagNA Pure 96 Nucleic Acid Purification System (Roche Applied Science) for viral DNA extraction. The extracted samples were subjected to HBV DNA quantification by qPCR.

[1] = Human microsomal metabolic stability; assay type: in vitro ADME; conditions: human microsomes 0.5 mg/mL, 1 μM test compound, NADPH, 37° C., pH 7.4, 0-30 minutes
Experimental: Human Microsomes (BD Gentest) were preincubated with test compound for 10 minutes at 37° C. in 100 mM phosphate buffer, pH 7.4. The reactions were initiated by adding NADPH or NADPH regenerating system to give a final incubation volume of 400 μL. For NADPH system, the final incubations contained 1 μM test compound, 0.5 mg/mL liver microsomal protein, 1 mM NADPH in 100 mM phosphate buffer, pH 7.4. For the NADPH regenerating system, the final incubations contained 1 μM test compound, 0.5 mg/mL liver microsomal protein, 3 mM glucose 6-phosphate, 1 mM NADP, 3 mM MgCl2 and 0.05 mg/mL glucose 6-phosphate dehydrogenase in 100 mM phosphate buffer, pH 7.4. After incubation times of 0, 3, 6, 9, 15 and 30 minutes at 37° C., 1 sample was obtained from each time point and 50 μL of each sample was removed and transferred to 150 μL of methanol solution which was maintained at 4° C. and contained 2 μM tolbutamide as internal standard. Following precipitation and centrifugation, the amount of compound remaining in the samples were determined by LC-MS/MS. Controls of no NADPH or no NADPH regenerating system at zero and 30 minutes were also prepared and analyzed.

| SMILES | solubility thermodynamic (Lysa solubility) | EC50 (HBV) | Lysa (Lysa solubility) | Human Microsomal Clearance [1] |
| --- | --- | --- | --- | --- |
| CCC(CN1C[C@@H]2CN(CC3=C(C(=O)OC)[C@H](c4ccc(F)cc4Cl)N=C(c4nccs4)N3)CCN2C1=O)C(=O)O (stereo partly drawn) [Example 75, 2-[[(8aS)-7-[[(4R)-4-(2-chloro-4-fluoro-phenyl)-5-methoxycarbonyl-2-thiazol-2-yl-1,4-dihydropyrimidin-6-yl]methyl]-3-oxo-5,6,8,8a-tetrahydro-1H-imidazo[1,5-a]pyrazin-2-yl]methyl]butanoic acid] | > 774 µg/mL | 24 nM | – | – |
| COC(=O)C1=C(CN2CCN3C(=O)N(C4CC4)C[C@H]3[C@@H]2C(=O)O)NC(c2nccs2)=N[C@H]1c1ccc(F)c(F)c1C (single isomer, unassigned) [Example 83A] | – | – | > 740 µg/mL | – |
| CCOC(=O)C1=C(CN2CCN3C(=O)N(CCC(=O)O)C[C@@H]3C2)NC(c2nccs2)=N[C@H]1c1cccc(F)c1Cl [Example 56, (R)-6-[(S)-2-(2-Carboxy-ethyl)-3-oxo-hexahydro-imidazo[1,5-a]pyrazin-7-ylmethyl]-4-(2-chloro-3-fluoro-phenyl)-2-thiazol-2-yl-1,4-dihydro-pyrimidine-5-carboxylic acid ethyl ester] | > 740 µg/mL | 26 nM | – | – |
| COC(=O)C1=C(CN2CCN3C(=O)N(C4(CC(=O)O)CC4)C[C@H]3C2)NC(c2nccs2)=N[C@H]1c1ccc(F)cc1Cl [Example 46, 2-[1-[(8aR)-7-[[(4R)-4-(2-chloro-4-fluoro-phenyl)-5-methoxycarbonyl-2-thiazol-2-yl-1,4-dihydropyrimidin-6-yl]methyl]-3-oxo-5,6,8,8a-tetrahydro-1H-imidazo[1,5-a]pyrazin-2-yl]cyclopropyl]acetic acid] | > 744 µg/mL | 26 nM | – | – |
| COC(=O)C1=C(CN2CCN3C(=O)OC(C)(C)[C@]3(CC(=O)O)C2)NC(c2nccs2)=N[C@H]1c1ccc(F)cc1Cl (single isomer, unassigned) [Example 90A] | – | 96 nM | – | 0.3 mL/min/kg |
| CCOC(=O)C1=C(CN2CCN3C(=O)N(C4CC4)C[C@H]3[C@@H]2C(=O)O)NC(c2nccs2)=N[C@H]1c1cccc(F)c1Cl (single isomer, unassigned) [Example 82A] | – | 145 nM | – | 1.7 mL/min/kg |
| COC(=O)C1=C(CN2CCN3C(=O)CC[C@@H]3C2)NC(c2nccs2)=N[C@H]1c1ccc(F)cc1Br [Example 7, Methyl (4R)-6-[[(8aR)-6-oxo-1,3,4,7,8,8a-hexahydropyrrolo[1,2-a]pyrazin-2-yl]methyl]-4-(2-bromo-4-fluoro-phenyl)-2-thiazol-2-yl-1,4-dihydropyrimidine-5-carboxylate] | – | 14 nM | – | – |
| CCOC(=O)C1=C(CN2CCN3C(=O)N([C@@H]4CCCC4C(=O)O)C[C@@H]3C2)NC(c2nccs2)=N[C@H]1c1cccc(F)c1Cl (stereo in doubt) [Example 49, (1S,2R)-2-[(8aS)-7-[[(4R)-4-(2-chloro-3-fluoro-phenyl)-5-ethoxycarbonyl-2-thiazol-2-yl-1,4-dihydropyrimidin-6-yl]methyl]-3-oxo-5,6,8,8a-tetrahydro-1H-imidazo[1,5-a]pyrazin-2-yl]cyclopentanecarboxylic acid] | 312 µg/mL (≈ 494 µM) | 8 nM | – | – |
| COC(=O)C1=C(CN2CCN3C(=O)NC(=O)[C@@H]3C2)NC(c2nccs2)=N[C@H]1c1ccc(F)cc1Cl [Example 16, Methyl (4R)-6-[[(8aS)-1,3-dioxo-5,6,8,8a-tetrahydroimidazo[1,5-a]pyrazin-7-yl]methyl]-4-(2-chloro-4-fluoro-phenyl)-2-thiazol-2-yl-1,4-dihydropyrimidine-5-carboxylate] | – | 41 nM | – | – |
| CCOC(=O)C1=C(CN2CCN3C(=O)N(C(C)C)C[C@H]3[C@@H]2C(=O)O)NC(c2nccs2)=N[C@H]1c1cccc(F)c1Cl (single isomer, unassigned) [Example 84A] | – | 45 nM | 570 µg/mL | – |
| CCOC(=O)C1=C(CN2CCN3C(=O)N(C(C)(C)C(=O)OC)CC3C2)NC(c2nccs2)=N[C@H]1c1cccc(F)c1Cl (stereo partly drawn) [Example 23, Ethyl (4R)-4-(2-chloro-3-fluoro-phenyl)-6-[[2-(2-methoxy-1,1-dimethyl-2-oxo-ethyl)-3-oxo-5,6,8,8a-tetrahydro-1H-imidazo[1,5-a]pyrazin-7-yl]methyl]-2-thiazol-2-yl-1,4-dihydropyrimidine-5-carboxylate] | – | 3 nM | – | – |
| COC(=O)C1=C(CN2CCN3[C@H](CNS3(=O)=O)C2)NC(c2nccs2)=N[C@H]1c1ccc(F)cc1Cl [Example 17, Methyl (4R)-6-[[(3aS)-1,1-dioxo-2,3,3a,4,6,7-hexahydro-[1,2,5]thiadiazolo[2,3-a]pyrazin-5-yl]methyl]-4-(2-chloro-4-fluoro-phenyl)-2-thiazol-2-yl-1,4-dihydropyrimidine-5-carboxylate] | – | 39 nM | – | – |
| CCOC(=O)C1=C(CN2CCN3C(=O)CC[C@@H]3C2)NC(c2nccs2)=N[C@H]1c1ccc(F)cc1Br [Example 8, Ethyl (4R)-6-[[(8aR)-6-oxo-1,3,4,7,8,8a-hexahydropyrrolo[1,2-a]pyrazin-2-yl]methyl]-4-(2-bromo-4-fluoro-phenyl)-2-thiazol-2-yl-1,4-dihydropyrimidine-5-carboxylate] | – | 11 nM | – | – |
| CCOC(=O)C1=C(CN2CCN3C(=O)N(C)C[C@@H]3[C@H]2C(=O)O)NC(c2nccs2)=N[C@H]1c1cccc(F)c1Cl (single isomer, unassigned) [Example 91A] | – | 150 nM | – | – |
| COC(=O)C1=C(CN2CCN3C(=O)NC[C@H]3C2)NC(c2nccs2)=N[C@H]1c1ccc(F)cc1Cl [Example 12, Methyl (4R)-6-[[(8aS)-3-oxo-1,2,5,6,8,8a-hexahydroimidazo[1,5-a]pyrazin-7-yl]methyl]-4-(2-chloro-4-fluoro-phenyl)-2-thiazol-2-yl-1,4-dihydropyrimidine-5-carboxylate] | – | 149 nM | – | – |
| CCOC(=O)C1=C(CN2CCN3C(=O)N(CC(C)C)C[C@H]3[C@@H]2C(=O)O)NC(c2nccs2)=N[C@H]1c1cccc(F)c1Cl (single isomer, unassigned) [Example 101A] | – | 40 nM | – | – |
| CCOC(=O)C1=C(CN2CCN3C(=O)OC[C@H]3[C@@H]2C(=O)O)NC(c2nccs2)=N[C@H]1c1cccc(F)c1Cl (single isomer, unassigned) [Example 102A] | – | 147 nM | – | – |
| COC(=O)C1=C(CN2CCN3C(=O)N(C4(CC(=O)O)CC4)CC3C2)NC(c2nccs2)=N[C@H]1c1ccc(F)cc1Cl (stereo in doubt) [Example 47, 2-[1-[(8aR)-7-[[(4R)-4-(2-chloro-4-fluoro-phenyl)-5-methoxycarbonyl-2-thiazol-2-yl-1,4-dihydropyrimidin-6-yl]methyl]-3-oxo-5,6,8,8a-tetrahydro-1H-imidazo[1,5-a]pyrazin-2-yl]cyclopropyl]acetic acid] | > 767 µg/mL | 51 nM | – | – |
| COC(=O)C1=C(CN2CCN3C(=O)N(c4ccc(C(=O)O)nc4)CC3C2)NC(c2nccs2)=N[C@H]1c1ccc(F)cc1Cl (mixture of isomers) [Example 95, 5-[7-[[(4R)-4-(2-chloro-4-fluoro-phenyl)-5-methoxycarbonyl-2-thiazol-2-yl-1,4-dihydropyrimidin-6-yl]methyl]-3-oxo-5,6,8,8a-tetrahydro-1H-imidazo[1,5-a]pyrazin-2-yl]pyridine-2-carboxylic acid] | 307 µg/mL (≈ 490 µM) | 11 nM | – | – |
| CCOC(=O)C1=C(CN2CCN3C(=O)NC[C@H]3C2)NC(c2nccs2)=N[C@H]1c1ccc(F)cc1Br [Example 13, Ethyl (4R)-6-[[(8aS)-3-oxo-1,2,5,6,8,8a-hexahydroimidazo[1,5-a]pyrazin-7-yl]methyl]-4-(2-bromo-4-fluoro-phenyl)-2-thiazol-2-yl-1,4-dihydropyrimidine-5-carboxylate] | – | 66 nM | – | – |
